Experimental data from ChEMBL document CHEMBL3243933, “3-Aryl-as-triazines as potential antiinflammatory agents” (1977).
Activity calls are given as the source filed them. The rule behind the calls is not given here.

Key:
Rattus norvegicus [1] = experiment: Antiinflammatory activity in rat adjuvant-induced arthritis model assessed as mean surface area of paw at 250 mg/kg administered via gavage relative to control; assay type: functional, organism-based; parameters: dose 250 mg/kg
Rattus norvegicus [2] = experiment: Antiinflammatory activity in rat assessed as inhibition of carrageenan-induced paw edema at 250 mg/kg administered via gavage relative to control; assay type: functional
Rattus norvegicus [3] = experiment: Antiinflammatory activity in rat assessed as inhibition of carrageenan-induced paw edema at 50 mg/kg administered via gavage relative to control; assay type: functional
Rattus norvegicus [4] = experiment: Antiinflammatory activity in rat adjuvant-induced arthritis model assessed as mean surface area of paw at 400 mg/kg/day administered via gavage relative to control; assay type: functional
Rattus norvegicus [5] = experiment: Antiinflammatory activity in rat adjuvant-induced arthritis model assessed as mean surface area of paw at 50 mg/kg/day administered via gavage relative to control; assay type: functional

## Clc1ccc(-c2nccnn2)cc1
Rattus norvegicus [1]
  Activity: inactive
Rattus norvegicus [2]
  C/T: 2.25

## CC(=O)Oc1ccccc1C(=O)O [ASPIRIN]
Rattus norvegicus [3]
  C/T: 2.8
Rattus norvegicus [4]
  Ratio: 0.55

## Fc1ccc(-c2nccnn2)cc1
Rattus norvegicus [1]
  Activity: inactive
Rattus norvegicus [2]
  C/T: 2.67

## Fc1ccc(-c2nncnn2)cc1
Rattus norvegicus [5]
  Ratio: 0.46
Rattus norvegicus [2]
  C/T: 2.8

## Clc1ccc(-c2nncnn2)cc1
Rattus norvegicus [5]
  Ratio: 0.54
Rattus norvegicus [2]
  C/T: 3.07
